Assay [1] deals with T1, Sb-PDE.
T1 construct: native enzyme purified from Sphingobium sp; TCM1; signal peptide removed; mature 413 residues, N-terminus EFVTQSDQRPP (residues 29-39 of 441); homodimer, 116 kDa; zinc-containing; PHP superfamily
Format: biochemical, Sphingobium sp. TCM1.

Assay [2] has as its system T1, Sb-PDE. Format: biochemical, Sphingobium sp. TCM1. The source holds these as a separate data set.

`O=[N+]([O-])c1ccc(OP(=O)(O)Oc2ccc([N+](=O)[O-])cc2)cc1` [BpNPP] showed a K i in the assay on Sb-PDE [1] of 12.5 ± 3.1 mM. In the assay with Sb-PDE [2], the Km turned out to be 6.1 ± 1.2 mM.

For the molecule `O=[N+]([O-])c1ccc(OP(=O)(O)O)cc1` [pNPP], the Km in the assay on Sb-PDE [2] amounted to 1.5 ± 0.2 mM.

The values above are taken from publication PMC5460133 (Scientific Reports, 2017).
